Data taken from ChEMBL document CHEMBL3992546, “Discovery and optimization of benzimidazole derivatives as a novel chemotype of farnesoid X receptor (FXR) antagonists” (Bioorg Med Chem, 2017).
Calls of active or inactive are those of the source. The calls are words filed in the database; no cut-off is given here.

Tests used:
[1] = Antagonist activity at human FXRalpha expressed in human Hep3B cells assessed as inhibition of CDCA-induced FXR response element driven luciferase activity after 24 hrs; type: cell-based
Bile acid receptor = biological target: T1, Bile acid receptor (Homo sapiens, UniProt Q96RI1); experiment: Inhibition of GW4064-induced fluorecein-labeled SRC2-2 coactivator recruitment in GST-tagged FXR LBD (unknown origin) by Lanthascreen TR-FRET assay
T1 sequence (Q96RI1 whole entry): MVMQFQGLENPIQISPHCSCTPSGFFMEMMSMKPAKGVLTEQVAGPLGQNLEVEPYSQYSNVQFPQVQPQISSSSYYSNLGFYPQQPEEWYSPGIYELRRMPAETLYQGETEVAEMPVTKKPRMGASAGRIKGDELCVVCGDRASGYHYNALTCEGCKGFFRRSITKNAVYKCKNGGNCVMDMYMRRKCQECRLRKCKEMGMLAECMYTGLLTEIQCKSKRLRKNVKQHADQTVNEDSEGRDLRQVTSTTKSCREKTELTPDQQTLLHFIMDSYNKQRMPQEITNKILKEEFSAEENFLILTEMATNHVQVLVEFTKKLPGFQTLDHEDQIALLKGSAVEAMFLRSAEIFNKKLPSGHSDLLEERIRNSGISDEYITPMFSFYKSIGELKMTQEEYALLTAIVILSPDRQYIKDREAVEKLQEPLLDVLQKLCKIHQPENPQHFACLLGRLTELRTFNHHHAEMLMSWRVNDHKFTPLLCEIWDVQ

[2] = biological target: T2, Retinoic acid receptor RXR-alpha (Homo sapiens) (UniProt P19793); experiment: Antagonist activity at human RXRalpha expressed in human Hep3B cells assessed as inhibition of 9-cis-retinoic acid-induced RXR response element driven luciferase activity at 100 uM after 24 hrs; type: cell-based
T2 sequence (whole entry): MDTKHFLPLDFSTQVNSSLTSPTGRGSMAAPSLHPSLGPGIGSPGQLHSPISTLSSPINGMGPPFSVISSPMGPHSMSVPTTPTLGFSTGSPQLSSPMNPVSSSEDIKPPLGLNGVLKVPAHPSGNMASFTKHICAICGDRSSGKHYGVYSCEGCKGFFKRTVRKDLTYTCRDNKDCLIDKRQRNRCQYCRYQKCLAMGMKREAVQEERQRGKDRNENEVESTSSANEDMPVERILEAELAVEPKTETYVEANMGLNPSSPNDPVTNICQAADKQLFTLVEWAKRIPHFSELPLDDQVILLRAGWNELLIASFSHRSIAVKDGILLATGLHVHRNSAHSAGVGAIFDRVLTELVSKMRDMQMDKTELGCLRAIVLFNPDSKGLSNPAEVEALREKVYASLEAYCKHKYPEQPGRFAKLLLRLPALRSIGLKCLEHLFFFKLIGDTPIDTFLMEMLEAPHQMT

[3] = biological target: T3, Bile acid receptor (Homo sapiens) (UniProt Q96RI1); experiment: Antagonist activity at FXR in human Hep3B cells assessed as inhibition of CDCA-induced decrease in CYP7A1 expression level at 0.2 to 5 uM after 24 hrs by RT-PCR method; type: cell-based
T3 sequence (whole entry): T1 sequence (Q96RI1 whole entry)

[4] = biological target: T3, Bile acid receptor (Homo sapiens); experiment: Antagonist activity at FXR in human Hep3B cells assessed as inhibition of CDCA-induced SHP expression level at 0.2 to 5 uM after 24 hrs by RT-PCR method; type: cell-based
[5] = Homo sapiens, Hep3B, 24 h, read-out: IC50

Structure (SMILES)	IC50 [1, 5] [µM]	IC50 (Bile acid receptor) [µM]	also measured
CC[C@@H](c1nc2ccc(C(=O)O)cc2n1C)N1C(=O)CN(c2ccc(Oc3ccccc3)cc2)C1=O	24.8	209	–
CC(C)C[C@@H](c1nc2cc(C(=O)O)ccc2n1C)N1C(=O)CN(c2ccc(Oc3ccccc3)cc2)C1=O	18.2	113	–
CC(C)C[C@@H](c1nc2ccc(C(=O)O)cc2n1C)N1C(=O)CN(c2ccc(Oc3ccc(Cl)cc3)cc2)C1=O	4.1	2.56	–
CC(C)C[C@@H](c1nc2ccc(C(=O)O)cc2n1C)N1C(=O)CN(c2ccc(F)cc2)C1=O	–	399	IC50 [1]: Not Active
CC(C)C[C@@H](c1nc2ccc(C(=O)O)cc2n1C)N1C(=O)N(c2ccc(Oc3ccccc3)cc2)C(C)(C)C1=O	24.4	105	–
CC(C)C[C@@H](c1nc2ccc(C(=O)O)cc2n1C)N1C(=O)CN(c2cccc(Oc3ccccc3)c2)C1=O	9.9	18.2	–
CC(C)[C@@H](c1nc2ccc(C(=O)O)cc2n1C)N1C(=O)CN(c2ccc(Oc3ccccc3)cc2)C1=O	10.1	174	–
Cn1c([C@@H](N2C(=O)CN(c3ccc(Oc4ccccc4)cc3)C2=O)C(C)(C)C)nc2ccc(C(=O)O)cc21	6.3	77.1	–
Cn1c([C@H](Cc2ccccc2)N2C(=O)CN(c3ccc(Oc4ccccc4)cc3)C2=O)nc2ccc(C(=O)O)cc21	6.4	35.2	–
Cc1ccc2nc([C@H](CC3CCCCC3)N3C(=O)CN(c4ccc(Oc5ccccc5)cc4)C3=O)n(C)c2c1	0.0012	126	inhibition [2]: inactive; inhibition [3]: Active; inhibition [4]: Active
CC(C)C[C@@H](c1nc2ccc(C(=O)O)cc2n1C)N1C(=O)CN(c2ccc(OC3CCCCC3)cc2)C1=O	55.2	126	–
Cn1c([C@@H](Cc2ccccc2)N2C(=O)CN(c3ccc(Oc4ccccc4)cc3)C2=O)nc2ccc(C(=O)O)cc21	13.9	87.5	–
Cn1c([C@H](CC2CCCCC2)N2C(=O)CN(c3ccc(Oc4ccccc4)cc3)C2=O)nc2ccc(C(=O)O)cc21	2	24.4	–
CC[C@H](C)[C@@H](c1nc2ccc(C(=O)O)cc2n1C)N1C(=O)CN(c2ccc(Oc3ccccc3)cc2)C1=O	3.8	102	–
Cc1ccc2nc([C@H](CC(C)C)N3C(=O)CN(c4ccc(Oc5ccccc5)cc4)C3=O)n(C)c2c1	0.175	65.6	–
CC(C)[C@H](c1nc2ccc(C(=O)O)cc2n1C)N1C(=O)CN(c2ccc(Oc3ccccc3)cc2)C1=O	100	118	–
CC(C)C[C@@H](c1nc2ccc(C(=O)O)cc2n1C)N1CC(=O)N(c2ccc(Oc3ccccc3)cc2)CC1=O	–	417	IC50 [1]: Not Active
CC(C)C[C@@H](c1nc2ccc(C(=O)O)cc2n1C)N1C(=O)CN(c2ccc(-c3ccccc3)cc2)C1=O	28.1	23.1	–
CC(C)C[C@@H](c1nc2ccc(C(=O)O)cc2n1C)N1C(=O)CN(c2ccc(Oc3ccccc3)cc2)C1=O	5.6	43.4	–
CC(C)C[C@H](c1nc2ccc(C(=O)O)cc2n1C)N1C(=O)CN(c2ccc(Oc3ccccc3)cc2)C1=O	33.6	6.6 to 66.6	–
CC(C)C[C@@H](c1nc2ccc(C(=O)O)cc2n1C)N1CCN(c2ccc(Oc3ccccc3)cc2)C1=O	5.7	28.5	–
C/C=C1\C(=O)C[C@H]2[C@@H]3CCC4=CC(=O)CC[C@]4(C)[C@H]3CC[C@]12C [GUGGULSTERONE]	2	–	–
C[C@@H](c1nc2ccc(C(=O)O)cc2n1C)N1C(=O)CN(c2ccc(Oc3ccccc3)cc2)C1=O	> 300	10.4	–
COc1ccc(Oc2ccc(N3CC(=O)N([C@@H](CC(C)C)c4nc5ccc(C(=O)O)cc5n4C)C3=O)cc2)cc1	4.5	75.3	–
